# Legend:
# [1] = target: Non-receptor tyrosine-protein kinase TYK2 (Homo sapiens, UniProt P29597); test: Inhibition of His-tagged TYK2 (unknown origin) after 3 hrs by Caliper assay
# [2] = target: Mitogen-activated protein kinase kinase kinase 2 (Homo sapiens) (UniProt Q9Y2U5); test: Inhibition of wild-type human partial length MAP3K2 (S315 to H619 residues) expressed in mammalian expression system assessed as residual activity at 50 nM by Kinomescan method relative to control
# [3] = target: Non-receptor tyrosine-protein kinase TNK1 (Homo sapiens) (UniProt Q13470); test: Inhibition of wild-type human full length TNK1 (M1 to P661 residues) expressed in bacterial expression system assessed as residual activity at 50 nM by Kinomescan method relative to control
# [4] = target: Muscle, skeletal receptor tyrosine-protein kinase (Homo sapiens) (UniProt O15146); test: Inhibition of wild-type human partial length MUSK (M553 to V869 residues) expressed in bacterial expression system assessed as residual activity at 50 nM by Kinomescan method relative to control
# [5] = target: Casein kinase II subunit alpha (Homo sapiens) (UniProt P68400); test: Inhibition of wild-type human full length CK2A1 (M1 to Q391 residues) expressed in mammalian expression system assessed as residual activity at 50 nM by Kinomescan method relative to control
# [6] = target: Mitogen-activated protein kinase kinase kinase 6 (Homo sapiens) (UniProt O95382); test: Inhibition of wild-type human partial length MAP3K6 (M278 to R972 residues) expressed in mammalian expression system assessed as residual activity at 50 nM by Kinomescan method relative to control
# [7] = target: Serine/threonine-protein kinase TAO2 (Homo sapiens) (UniProt Q9UL54); test: Inhibition of wild-type human partial length TAO2 (M1 to A320 residues) expressed in mammalian expression system assessed as residual activity at 50 nM by Kinomescan method relative to control
# [8] = target: Dual specificity tyrosine-phosphorylation-regulated kinase 1A (Homo sapiens) (UniProt Q13627); test: Inhibition of wild-type human partial length DYRK1A (H129 to S509 residues) expressed in mammalian expression system assessed as residual activity at 50 nM by Kinomescan method relative to control
# [9] = target: Serine/threonine-protein kinase PAK 2 (Homo sapiens) (UniProt Q13177); test: Inhibition of wild-type human partial length PAK2 (P151 to R525 residues) expressed in bacterial expression system assessed as residual activity at 50 nM by Kinomescan method relative to control
# [10] = target: Calcium/calmodulin-dependent protein kinase type II subunit beta (Homo sapiens) (UniProt Q13554); test: Inhibition of wild-type human partial length CAMK2B (M1 to Q380 residues) expressed in bacterial expression system assessed as residual activity at 50 nM by Kinomescan method relative to control
# Calcium/calmodulin-dependent protein kinase type II subunit beta (Homo sapiens), sequence (Q13554 whole entry, the tested form may be a part): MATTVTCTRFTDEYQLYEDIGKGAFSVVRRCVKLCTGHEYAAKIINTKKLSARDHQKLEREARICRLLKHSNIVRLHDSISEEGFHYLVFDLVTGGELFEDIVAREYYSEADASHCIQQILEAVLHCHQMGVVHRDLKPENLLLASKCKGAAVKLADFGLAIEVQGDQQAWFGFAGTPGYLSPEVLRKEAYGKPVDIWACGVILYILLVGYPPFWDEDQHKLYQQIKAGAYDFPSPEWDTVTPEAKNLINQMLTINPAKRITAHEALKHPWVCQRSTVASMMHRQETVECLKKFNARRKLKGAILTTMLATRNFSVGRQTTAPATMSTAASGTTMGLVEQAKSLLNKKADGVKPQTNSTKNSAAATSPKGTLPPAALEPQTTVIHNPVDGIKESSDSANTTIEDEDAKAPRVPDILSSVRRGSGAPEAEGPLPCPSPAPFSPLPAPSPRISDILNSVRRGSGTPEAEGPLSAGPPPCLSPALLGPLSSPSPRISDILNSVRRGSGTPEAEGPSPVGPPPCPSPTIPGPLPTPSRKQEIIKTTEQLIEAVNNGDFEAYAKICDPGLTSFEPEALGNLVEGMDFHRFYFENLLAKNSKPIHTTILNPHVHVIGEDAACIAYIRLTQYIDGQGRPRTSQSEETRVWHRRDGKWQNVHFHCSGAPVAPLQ
# [11] = target: MAP/microtubule affinity-regulating kinase 4 (Homo sapiens) (UniProt Q96L34); test: Inhibition of wild-type human partial length MARK4 (K29 to G340 residues) expressed in bacterial expression system assessed as residual activity at 50 nM by Kinomescan method relative to control
# [12] = target: Cyclin-dependent kinase 14 (Homo sapiens) (UniProt O94921); test: Inhibition of wild-type human full length PFTAIRE1 (M1 to H451 residues) expressed in bacterial expression system assessed as residual activity at 50 nM by Kinomescan method relative to control
# [13] = target: Fibroblast growth factor receptor 4 (Homo sapiens) (UniProt P22455); test: Inhibition of wild-type human partial length FGFR4 (G402 to E713 residues) expressed in bacterial expression system assessed as residual activity at 50 nM by Kinomescan method relative to control
# [14] = target: Dual specificity mitogen-activated protein kinase kinase 3 (Homo sapiens) (UniProt P46734); test: Inhibition of wild-type human full length MAP2K3 (M1 to S318 residues) expressed in mammalian expression system assessed as residual activity at 50 nM by Kinomescan method relative to control
# [15] = target: Peripheral plasma membrane protein CASK (Homo sapiens) (UniProt O14936); test: Inhibition of wild-type human partial length CASK (M1 to H315 residues) expressed in mammalian expression system assessed as residual activity at 50 nM by Kinomescan method relative to control
# [16] = target: Serine/threonine-protein kinase Chk1 (Homo sapiens) (UniProt O14757); test: Inhibition of wild-type human partial length CHK1 (M1 to G289 residues) expressed in bacterial expression system assessed as residual activity at 50 nM by Kinomescan method relative to control
# [17] = target: Tyrosine-protein kinase Tec (Homo sapiens) (UniProt P42680); test: Inhibition of wild-type human partial length TEC (L341 to D620 residues) expressed in bacterial expression system assessed as residual activity at 50 nM by Kinomescan method relative to control
# [18] = target: ALK tyrosine kinase receptor (Homo sapiens) (UniProt Q9UM73); test: Inhibition of wild-type human partial length ALK (I1088 to E1409 residues) expressed in mammalian expression system assessed as residual activity at 50 nM by Kinomescan method relative to control
# ALK tyrosine kinase receptor (Homo sapiens), sequence (Q9UM73 19-1620 limits assumed): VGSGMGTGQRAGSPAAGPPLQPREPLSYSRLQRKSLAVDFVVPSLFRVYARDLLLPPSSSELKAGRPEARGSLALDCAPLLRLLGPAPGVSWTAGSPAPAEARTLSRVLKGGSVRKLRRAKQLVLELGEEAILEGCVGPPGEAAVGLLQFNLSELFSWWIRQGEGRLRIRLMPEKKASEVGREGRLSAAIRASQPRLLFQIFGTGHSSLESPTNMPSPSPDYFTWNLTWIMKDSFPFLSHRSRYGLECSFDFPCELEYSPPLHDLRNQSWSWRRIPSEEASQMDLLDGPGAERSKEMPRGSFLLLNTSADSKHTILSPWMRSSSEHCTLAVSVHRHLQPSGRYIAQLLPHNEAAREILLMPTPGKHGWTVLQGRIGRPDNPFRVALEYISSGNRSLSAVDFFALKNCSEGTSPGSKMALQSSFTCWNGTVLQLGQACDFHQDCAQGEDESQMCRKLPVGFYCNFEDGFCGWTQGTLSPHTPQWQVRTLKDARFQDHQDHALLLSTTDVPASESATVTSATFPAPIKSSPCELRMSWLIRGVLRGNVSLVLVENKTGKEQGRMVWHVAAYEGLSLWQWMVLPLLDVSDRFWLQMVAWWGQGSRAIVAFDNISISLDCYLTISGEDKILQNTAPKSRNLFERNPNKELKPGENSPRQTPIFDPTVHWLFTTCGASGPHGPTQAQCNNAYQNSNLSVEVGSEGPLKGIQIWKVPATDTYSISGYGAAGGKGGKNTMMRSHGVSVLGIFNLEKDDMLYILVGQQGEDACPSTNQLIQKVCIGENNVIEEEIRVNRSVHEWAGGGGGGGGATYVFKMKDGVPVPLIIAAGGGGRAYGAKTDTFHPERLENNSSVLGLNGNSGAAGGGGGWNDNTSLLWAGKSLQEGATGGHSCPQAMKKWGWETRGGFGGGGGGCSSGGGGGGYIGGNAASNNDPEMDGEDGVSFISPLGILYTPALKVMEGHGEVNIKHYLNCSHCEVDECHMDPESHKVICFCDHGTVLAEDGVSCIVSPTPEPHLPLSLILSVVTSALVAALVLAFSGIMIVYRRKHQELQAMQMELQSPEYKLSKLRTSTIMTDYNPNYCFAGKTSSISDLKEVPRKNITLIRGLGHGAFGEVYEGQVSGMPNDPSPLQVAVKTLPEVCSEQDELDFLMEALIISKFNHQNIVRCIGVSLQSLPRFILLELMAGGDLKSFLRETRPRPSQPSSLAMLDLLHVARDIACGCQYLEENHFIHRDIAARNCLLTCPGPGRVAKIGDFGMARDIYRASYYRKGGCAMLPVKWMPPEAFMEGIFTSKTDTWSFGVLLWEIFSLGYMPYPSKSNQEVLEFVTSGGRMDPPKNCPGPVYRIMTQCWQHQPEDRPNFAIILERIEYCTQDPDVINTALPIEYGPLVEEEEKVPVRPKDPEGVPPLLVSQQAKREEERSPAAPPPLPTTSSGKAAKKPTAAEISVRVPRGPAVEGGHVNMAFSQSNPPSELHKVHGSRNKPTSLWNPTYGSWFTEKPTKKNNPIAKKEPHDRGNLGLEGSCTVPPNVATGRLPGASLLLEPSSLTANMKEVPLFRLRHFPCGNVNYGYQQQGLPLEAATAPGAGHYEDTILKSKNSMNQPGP
# [19] = target: Cytoplasmic tyrosine-protein kinase BMX (Homo sapiens) (UniProt P51813); test: Inhibition of wild-type human full length BMX (M1 to H675 residues) expressed in bacterial expression system assessed as residual activity at 50 nM by Kinomescan method relative to control
# [20] = target: Dual specificity tyrosine-phosphorylation-regulated kinase 2 (Homo sapiens) (UniProt Q92630); test: Inhibition of wild-type human full length DYRK2 (M1 to S528 residues) expressed in mammalian expression system assessed as residual activity at 50 nM by Kinomescan method relative to control
# [21] = target: Ephrin type-A receptor 7 (Homo sapiens) (UniProt Q15375); test: Inhibition of wild-type human partial length EPHA7 (Y608 to S912 residues) expressed in bacterial expression system assessed as residual activity at 50 nM by Kinomescan method relative to control
# [22] = target: Ephrin type-A receptor 8 (Homo sapiens) (UniProt P29322); test: Inhibition of wild-type human partial length EPHA8 (Q608 to C920 residues) expressed in bacterial expression system assessed as residual activity at 50 nM by Kinomescan method relative to control
# [23] = target: Interleukin-1 receptor-associated kinase 4 (Homo sapiens) (UniProt Q9NWZ3); test: Inhibition of wild-type human partial length IRAK4 (M1 to S460 residues) expressed in mammalian expression system assessed as residual activity at 50 nM by Kinomescan method relative to control
# Interleukin-1 receptor-associated kinase 4 (Homo sapiens), sequence (Q9NWZ3 whole entry, the tested form may be a part): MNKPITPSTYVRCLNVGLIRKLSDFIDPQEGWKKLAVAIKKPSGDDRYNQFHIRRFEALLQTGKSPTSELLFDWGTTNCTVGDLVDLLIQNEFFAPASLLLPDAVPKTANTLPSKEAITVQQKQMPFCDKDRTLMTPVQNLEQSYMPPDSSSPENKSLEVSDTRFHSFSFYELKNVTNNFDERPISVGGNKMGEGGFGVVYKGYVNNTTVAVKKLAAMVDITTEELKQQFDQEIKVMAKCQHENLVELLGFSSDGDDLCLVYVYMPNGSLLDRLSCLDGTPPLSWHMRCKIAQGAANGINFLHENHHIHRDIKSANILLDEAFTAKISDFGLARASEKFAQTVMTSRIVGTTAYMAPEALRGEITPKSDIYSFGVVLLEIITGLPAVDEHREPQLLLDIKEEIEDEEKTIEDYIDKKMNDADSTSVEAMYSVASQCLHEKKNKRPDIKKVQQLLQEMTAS
# [24] = target: cGMP-dependent protein kinase 1 (Homo sapiens) (UniProt Q13976); test: Inhibition of wild-type human partial length PKG1 (L339 to F686 residues) expressed in bacterial expression system assessed as residual activity at 50 nM by Kinomescan method relative to control
# cGMP-dependent protein kinase 1 (Homo sapiens), sequence (Q13976 whole entry, the tested form may be a part): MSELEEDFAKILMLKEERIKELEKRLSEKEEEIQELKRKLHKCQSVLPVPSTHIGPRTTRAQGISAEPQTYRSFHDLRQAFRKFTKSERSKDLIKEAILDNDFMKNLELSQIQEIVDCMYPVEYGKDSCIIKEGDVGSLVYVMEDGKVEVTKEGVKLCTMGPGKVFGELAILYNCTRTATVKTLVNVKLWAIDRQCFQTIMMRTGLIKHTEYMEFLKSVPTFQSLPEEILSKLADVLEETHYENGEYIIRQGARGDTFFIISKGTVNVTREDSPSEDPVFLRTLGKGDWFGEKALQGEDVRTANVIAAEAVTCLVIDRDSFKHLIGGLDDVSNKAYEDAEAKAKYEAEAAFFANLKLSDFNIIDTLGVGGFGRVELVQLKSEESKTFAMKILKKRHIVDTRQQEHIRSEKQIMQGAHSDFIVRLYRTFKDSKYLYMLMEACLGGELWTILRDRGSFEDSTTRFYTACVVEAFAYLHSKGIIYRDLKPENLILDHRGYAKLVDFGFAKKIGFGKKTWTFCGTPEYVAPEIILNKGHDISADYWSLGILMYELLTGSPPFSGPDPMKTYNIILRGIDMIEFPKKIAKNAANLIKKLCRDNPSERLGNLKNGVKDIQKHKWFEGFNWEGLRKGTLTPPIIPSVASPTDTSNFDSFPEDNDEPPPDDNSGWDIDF
# [25] = target: Testis-specific serine/threonine-protein kinase 1 (Homo sapiens) (UniProt Q9BXA7); test: Inhibition of wild-type human full length TSSK1B (M1 to Q367 residues) expressed in bacterial expression system assessed as residual activity at 50 nM by Kinomescan method relative to control
# Testis-specific serine/threonine-protein kinase 1 (Homo sapiens), sequence (Q9BXA7 whole entry, the tested form may be a part): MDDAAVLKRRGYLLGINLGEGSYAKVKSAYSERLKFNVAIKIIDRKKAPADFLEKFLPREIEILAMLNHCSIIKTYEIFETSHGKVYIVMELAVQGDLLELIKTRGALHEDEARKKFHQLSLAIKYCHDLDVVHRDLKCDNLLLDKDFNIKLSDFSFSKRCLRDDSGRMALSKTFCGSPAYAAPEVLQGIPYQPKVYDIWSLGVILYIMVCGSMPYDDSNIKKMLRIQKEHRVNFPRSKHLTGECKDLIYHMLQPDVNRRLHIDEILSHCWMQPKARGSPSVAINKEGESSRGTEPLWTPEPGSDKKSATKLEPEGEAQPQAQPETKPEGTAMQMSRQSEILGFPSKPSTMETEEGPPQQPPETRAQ
# Non-receptor tyrosine-protein kinase TYK2, sequence (P29597 whole entry, the tested form may be a part): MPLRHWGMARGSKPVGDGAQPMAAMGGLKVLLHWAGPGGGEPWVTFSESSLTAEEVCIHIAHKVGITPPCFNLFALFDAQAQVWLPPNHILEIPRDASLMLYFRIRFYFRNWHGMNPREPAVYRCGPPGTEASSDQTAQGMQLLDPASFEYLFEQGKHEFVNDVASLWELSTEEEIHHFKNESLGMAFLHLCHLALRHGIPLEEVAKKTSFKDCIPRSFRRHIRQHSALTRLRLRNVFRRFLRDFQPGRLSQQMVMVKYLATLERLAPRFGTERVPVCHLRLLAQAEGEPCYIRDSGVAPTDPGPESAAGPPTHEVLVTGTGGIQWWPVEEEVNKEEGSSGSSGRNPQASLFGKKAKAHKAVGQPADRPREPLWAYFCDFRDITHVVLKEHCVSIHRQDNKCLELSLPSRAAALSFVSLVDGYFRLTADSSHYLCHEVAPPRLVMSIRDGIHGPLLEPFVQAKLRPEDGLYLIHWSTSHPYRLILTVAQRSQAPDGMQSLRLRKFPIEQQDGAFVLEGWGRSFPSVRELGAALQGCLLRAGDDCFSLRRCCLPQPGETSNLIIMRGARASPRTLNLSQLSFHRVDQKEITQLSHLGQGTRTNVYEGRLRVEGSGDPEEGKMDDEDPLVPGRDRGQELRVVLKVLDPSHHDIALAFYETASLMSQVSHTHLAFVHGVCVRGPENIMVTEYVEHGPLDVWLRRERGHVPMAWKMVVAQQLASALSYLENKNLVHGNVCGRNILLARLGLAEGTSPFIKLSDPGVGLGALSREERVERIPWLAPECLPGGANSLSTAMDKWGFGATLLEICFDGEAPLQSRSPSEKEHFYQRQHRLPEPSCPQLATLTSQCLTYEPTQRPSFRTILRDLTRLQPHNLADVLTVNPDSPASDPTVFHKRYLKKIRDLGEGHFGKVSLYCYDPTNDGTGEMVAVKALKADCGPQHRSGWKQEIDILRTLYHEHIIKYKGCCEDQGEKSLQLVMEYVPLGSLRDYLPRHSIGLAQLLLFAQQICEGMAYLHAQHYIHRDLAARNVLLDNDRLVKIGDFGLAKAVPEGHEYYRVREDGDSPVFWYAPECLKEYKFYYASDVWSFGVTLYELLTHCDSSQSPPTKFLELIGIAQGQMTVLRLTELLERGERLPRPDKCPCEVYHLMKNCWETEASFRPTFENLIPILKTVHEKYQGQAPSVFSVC
Structure (SMILES),IC50 [1],Activity [2],Activity [3],Activity [4],Activity [5],Activity [6],Activity [7],Activity [8],Activity [9],Activity [10],Activity [11],Activity [12],Activity [13],Activity [14],Activity [15],Activity [16],Activity [17],Activity [18],Activity [19],Activity [20],other results
COc1ccc(-c2cc3c(N[C@@H]4CC[C@](C)(N)C4(C)C)c(C(N)=O)cnn3c2)cn1,25 nM,46%,92%,90%,100%,93%,81%,100%,77%,92%,93%,100%,91%,92%,95%,85%,100%,94%,64%,100%,Activity [21]: 100%; Activity [22]: 100%; Activity [23]: 100%; Activity [24]: 100%; Activity [25]: 100%
CC1(C)[C@H](Nc2c(C(N)=O)cnn3cc(-c4ccccc4)cc23)CC[C@]1(C)N,7.5 nM,30%,34%,43%,56%,56%,72%,73%,76%,78%,79%,83%,88%,96%,98%,98%,99%,100%,100%,100%,Activity [21]: 100%; Activity [22]: 100%; Activity [23]: 100%; Activity [24]: 100%; Activity [25]: 100%
